From ChEMBL document CHEMBL3885881, “DrugMatrix”

Species on record: Rattus norvegicus
Assay: DrugMatrix - Regimen: Daily Repeat
Type: toxicity, organism-based, Sprague-Dawley
Parameters: regimen Daily Repeat, gender Male, age 6-8 weeks
Conditions: in vivo, po, route oral GAVAGE; for BASOPHIL / EOSINOPHIL / ERYTHROCYTE COUNT / HEMATOCRIT / HEMOGLOBIN / LEUKOCYTE COUNT / LYMPHOCYTE / MEAN CORPUSCULAR HEMOGLOBIN / MEAN CORPUSCULAR HEMOGLOBIN CONCENTRATION / MEAN CORPUSCULAR VOLUME / MONOCYTE / NEUTROPHIL / NUCLEATED RED BLOOD CELLS / PLATELET COUNT / ABSOLUTE BASOPHIL / ABSOLUTE EOSINOPHIL / ABSOLUTE LYMPHOCYTE / ABSOLUTE MONOCYTE / ABSOLUTE SEGMENTED NEUTROPHIL: tissue Blood; for ALANINE AMINOTRANSFERASE / ALBUMIN / ALKALINE PHOSPHATASE / ASPARTATE AMINOTRANSFERASE / BLOOD UREA NITROGEN / CARBON DIOXIDE / CHLORIDE / CHOLESTEROL / CREATINE PHOSPHOKINASE / CREATININE / GLUCOSE / LACTATE DEHYDROGENASE / LIPASE / PHOSPHORUS / POTASSIUM / SODIUM / TOTAL BILIRUBIN / TOTAL PROTEIN / URIC ACID: tissue Plasma
[1] = 300 mg/kg, 120 h, dose level M2, time 5 day, vehicle 100 % SALINE
[2] = 420 mg/kg, 72 h, dose level High, time 3 day, vehicle 100 % WATER
[3] = 420 mg/kg, 120 h, dose level High, time 5 day, vehicle 100 % WATER
[4] = […], 72 h, dose 2.5 mg/Kg, dose level Low, time 3 day, vehicle 100 % WATER
[5] = […], 120 h, dose 2.5 mg/Kg, dose level Low, time 5 day, vehicle 100 % WATER

CCCc1nn(C)c2c(=O)[nH]c(-c3cc(S(=O)(=O)N4CCN(C)CC4)ccc3OCC)nc12
BASOPHIL [1]: 0% | EOSINOPHIL [1]: 0% | ERYTHROCYTE COUNT [1]: 5.43 x10E6/uL | HEMATOCRIT [1]: 35.43% | HEMOGLOBIN [1]: 14 G/DL | LEUKOCYTE COUNT [1]: 11.23 x10E3/uL | LYMPHOCYTE [1]: 91% | MEAN CORPUSCULAR HEMOGLOBIN [1]: 25.83 pg | MEAN CORPUSCULAR HEMOGLOBIN CONCENTRATION [1]: 39.53 G/DL | MEAN CORPUSCULAR VOLUME [1]: 65.33 fL | MONOCYTE [1]: 0% | NEUTROPHIL [1]: 9% | NUCLEATED RED BLOOD CELLS [1]: 0.67 /100WBC | PLATELET COUNT [1]: 1112.67 x10E3/uL | ALANINE AMINOTRANSFERASE [1]: 45 u/L | ALBUMIN [1]: 4.03 G/DL | ALKALINE PHOSPHATASE [1]: 344 u/L | ASPARTATE AMINOTRANSFERASE [1]: 70.33 u/L | BLOOD UREA NITROGEN [1]: 14.67 mg/dL | CARBON DIOXIDE [1]: 33 mmol/L | CHLORIDE [1]: 100.33 MEQ/L | CHOLESTEROL [1]: 70 mg/dL | CREATINE PHOSPHOKINASE [1]: 212 u/L | CREATININE [1]: 0.31 mg/dL | GLUCOSE [1]: 137.33 mg/dL | LACTATE DEHYDROGENASE [1]: 106 u/L | LIPASE [1]: 11.33 u/L | PHOSPHORUS [1]: 10.77 mg/dL | POTASSIUM [1]: 6.45 MEQ/L | SODIUM [1]: 146.53 MEQ/L | TOTAL BILIRUBIN [1]: 0.2 mg/dL | TOTAL PROTEIN [1]: 5.43 G/DL | URIC ACID [1]: 0.73 mg/dL | ABSOLUTE BASOPHIL [2]: 0 CELLS/uL | ABSOLUTE EOSINOPHIL [2]: 0 CELLS/uL | ABSOLUTE LYMPHOCYTE [2]: 12448.33 CELLS/uL | ABSOLUTE MONOCYTE [2]: 74 CELLS/uL | ABSOLUTE SEGMENTED NEUTROPHIL [2]: 877.67 CELLS/uL | BASOPHIL [2]: 0% | EOSINOPHIL [2]: 0% | ERYTHROCYTE COUNT [2]: 5.64 x10E6/uL | HEMATOCRIT [2]: 35.27% | HEMOGLOBIN [2]: 13.43 G/DL | LEUKOCYTE COUNT [2]: 13.4 x10E3/uL | LYMPHOCYTE [2]: 92.33% | MEAN CORPUSCULAR HEMOGLOBIN [2]: 23.8 pg | MEAN CORPUSCULAR HEMOGLOBIN CONCENTRATION [2]: 38.1 G/DL | MEAN CORPUSCULAR VOLUME [2]: 62.57 fL | MONOCYTE [2]: 0.67% | NEUTROPHIL [2]: 7% | NUCLEATED RED BLOOD CELLS [2]: 0 /100WBC | PLATELET COUNT [2]: 944.33 x10E3/uL | ALANINE AMINOTRANSFERASE [2]: 41.67 u/L | ALBUMIN [2]: 3.77 G/DL | ALKALINE PHOSPHATASE [2]: 304 u/L | ASPARTATE AMINOTRANSFERASE [2]: 72.67 u/L | BLOOD UREA NITROGEN [2]: 16.33 mg/dL | CARBON DIOXIDE [2]: 30.33 mmol/L | CHLORIDE [2]: 102.33 MEQ/L | CHOLESTEROL [2]: 79.67 mg/dL | CREATINE PHOSPHOKINASE [2]: 170 u/L | CREATININE [2]: 0.14 mg/dL | GLUCOSE [2]: 148 mg/dL | LACTATE DEHYDROGENASE [2]: 130.33 u/L | LIPASE [2]: 9.67 u/L | PHOSPHORUS [2]: 8.4 mg/dL | POTASSIUM [2]: 5.71 MEQ/L | SODIUM [2]: 146.4 MEQ/L | TOTAL BILIRUBIN [2]: 0.23 mg/dL | TOTAL PROTEIN [2]: 5.6 G/DL | URIC ACID [2]: 0.5 mg/dL | ABSOLUTE BASOPHIL [3]: 0 CELLS/uL | ABSOLUTE EOSINOPHIL [3]: 0 CELLS/uL | ABSOLUTE LYMPHOCYTE [3]: 8874.67 CELLS/uL | ABSOLUTE MONOCYTE [3]: 36 CELLS/uL | ABSOLUTE SEGMENTED NEUTROPHIL [3]: 756 CELLS/uL | BASOPHIL [3]: 0% | EOSINOPHIL [3]: 0% | ERYTHROCYTE COUNT [3]: 5.05 x10E6/uL | HEMATOCRIT [3]: 32.73% | HEMOGLOBIN [3]: 12.9 G/DL | LEUKOCYTE COUNT [3]: 9.67 x10E3/uL | LYMPHOCYTE [3]: 91.67% | MEAN CORPUSCULAR HEMOGLOBIN [3]: 25.53 pg | MEAN CORPUSCULAR HEMOGLOBIN CONCENTRATION [3]: 39.4 G/DL | MEAN CORPUSCULAR VOLUME [3]: 64.8 fL | MONOCYTE [3]: 0.33% | NEUTROPHIL [3]: 8% | NUCLEATED RED BLOOD CELLS [3]: 0 /100WBC | PLATELET COUNT [3]: 1090.67 x10E3/uL | ALANINE AMINOTRANSFERASE [3]: 33.67 u/L | ALBUMIN [3]: 3.67 G/DL | ALKALINE PHOSPHATASE [3]: 232 u/L | ASPARTATE AMINOTRANSFERASE [3]: 57 u/L | BLOOD UREA NITROGEN [3]: 15.67 mg/dL | CARBON DIOXIDE [3]: 33.67 mmol/L | CHLORIDE [3]: 99 MEQ/L | CHOLESTEROL [3]: 77.67 mg/dL | CREATINE PHOSPHOKINASE [3]: 155 u/L | CREATININE [3]: 0.11 mg/dL | GLUCOSE [3]: 144.67 mg/dL | LACTATE DEHYDROGENASE [3]: 100 u/L | LIPASE [3]: 10 u/L | PHOSPHORUS [3]: 10.2 mg/dL | POTASSIUM [3]: 5.99 MEQ/L | SODIUM [3]: 146.03 MEQ/L | TOTAL BILIRUBIN [3]: 0.17 mg/dL | TOTAL PROTEIN [3]: 5.83 G/DL | URIC ACID [3]: 0.63 mg/dL | ABSOLUTE BASOPHIL [4]: 0 CELLS/uL | ABSOLUTE EOSINOPHIL [4]: 0 CELLS/uL | ABSOLUTE LYMPHOCYTE [4]: 7128 CELLS/uL | ABSOLUTE MONOCYTE [4]: 81 CELLS/uL | ABSOLUTE SEGMENTED NEUTROPHIL [4]: 891 CELLS/uL | BASOPHIL [4]: 0% | EOSINOPHIL [4]: 0% | ERYTHROCYTE COUNT [4]: 5.44 x10E6/uL | HEMATOCRIT [4]: 34.27% | HEMOGLOBIN [4]: 13.2 G/DL | LEUKOCYTE COUNT [4]: 8.1 x10E3/uL | LYMPHOCYTE [4]: 88% | MEAN CORPUSCULAR HEMOGLOBIN [4]: 24.4 pg | MEAN CORPUSCULAR HEMOGLOBIN CONCENTRATION [4]: 38.53 G/DL | MEAN CORPUSCULAR VOLUME [4]: 63.23 fL | MONOCYTE [4]: 1% | NEUTROPHIL [4]: 11% | NUCLEATED RED BLOOD CELLS [4]: 0.33 /100WBC | PLATELET COUNT [4]: 1027 x10E3/uL | ALANINE AMINOTRANSFERASE [4]: 61 u/L | ALBUMIN [4]: 4.03 G/DL | ALKALINE PHOSPHATASE [4]: 377.33 u/L | ASPARTATE AMINOTRANSFERASE [4]: 87.33 u/L | BLOOD UREA NITROGEN [4]: 16 mg/dL | CARBON DIOXIDE [4]: 29.33 mmol/L | CHLORIDE [4]: 101.67 MEQ/L | CHOLESTEROL [4]: 61 mg/dL | CREATINE PHOSPHOKINASE [4]: 188.67 u/L | CREATININE [4]: 0.1 mg/dL | GLUCOSE [4]: 163 mg/dL | LACTATE DEHYDROGENASE [4]: 107.67 u/L | LIPASE [4]: 8.33 u/L | PHOSPHORUS [4]: 9.57 mg/dL | POTASSIUM [4]: 5.88 MEQ/L | SODIUM [4]: 147.5 MEQ/L | TOTAL BILIRUBIN [4]: 0.17 mg/dL | TOTAL PROTEIN [4]: 5.97 G/DL | URIC ACID [4]: 0.63 mg/dL | ABSOLUTE BASOPHIL [5]: 0 CELLS/uL | ABSOLUTE EOSINOPHIL [5]: 0 CELLS/uL | ABSOLUTE LYMPHOCYTE [5]: 7975.33 CELLS/uL | ABSOLUTE MONOCYTE [5]: 0 CELLS/uL | ABSOLUTE SEGMENTED NEUTROPHIL [5]: 658 CELLS/uL | BASOPHIL [5]: 0% | EOSINOPHIL [5]: 0% | ERYTHROCYTE COUNT [5]: 5.39 x10E6/uL | HEMATOCRIT [5]: 34.73% | HEMOGLOBIN [5]: 14 G/DL | LEUKOCYTE COUNT [5]: 8.63 x10E3/uL | LYMPHOCYTE [5]: 92% | MEAN CORPUSCULAR HEMOGLOBIN [5]: 26 pg | MEAN CORPUSCULAR HEMOGLOBIN CONCENTRATION [5]: 40.3 G/DL | MEAN CORPUSCULAR VOLUME [5]: 64.5 fL | MONOCYTE [5]: 0% | NEUTROPHIL [5]: 8% | NUCLEATED RED BLOOD CELLS [5]: 0.33 /100WBC | PLATELET COUNT [5]: 629.67 x10E3/uL | ALANINE AMINOTRANSFERASE [5]: 49.67 u/L | ALBUMIN [5]: 4.27 G/DL | ALKALINE PHOSPHATASE [5]: 363.67 u/L | ASPARTATE AMINOTRANSFERASE [5]: 76 u/L | BLOOD UREA NITROGEN [5]: 14.33 mg/dL | CARBON DIOXIDE [5]: 32 mmol/L | CHLORIDE [5]: 98.67 MEQ/L | CHOLESTEROL [5]: 77 mg/dL | CREATINE PHOSPHOKINASE [5]: 203.33 u/L | CREATININE [5]: 0.13 mg/dL | GLUCOSE [5]: 145.33 mg/dL | LACTATE DEHYDROGENASE [5]: 120 u/L | LIPASE [5]: 9.33 u/L | PHOSPHORUS [5]: 11.67 mg/dL | POTASSIUM [5]: 6.39 MEQ/L | SODIUM [5]: 144.5 MEQ/L | TOTAL BILIRUBIN [5]: 0.2 mg/dL | TOTAL PROTEIN [5]: 6.3 G/DL | URIC ACID [5]: 0.87 mg/dL
